Assay results reported in patent publication EP0888056B1, “HERBICIDAL MIXTURES” (BASF AKTIENGESELLSCHAFT, priority 1996, dated 1998).
Where “and” joins values, the source holds several entries; their conditions need not be identical. Equal values may be shown once.

How the values were obtained:
Assay type in all cases: in vivo
Veronica persica = test: greenhouse herbicidal trial, post-emergence application, assessment 21 days after treatment
Method: (§1) The trials are carried out under greenhouse conditions in pre- and post-emergence applications. The plant seeds are sown in pots containing a loamy sand soil (0.5 I). The herbicides are applied as single treatments, or in a combination comprising a BAP compound and a non-BAP compound as designated, before or after emergence of weeds and crop. The herbicidal performance is assessed as percent damage in comparison to the untreated control plants. The assessment is done 21 days after the treatment. Wheat and barley are treated at the 3-4 leaf stage, the broad-leaf weeds at the 2-4 leaf stage and annual grasses at the 2-3 leaf stage.

Polygonum lapathifolium = test: as above
Method: as §1

Matricaria inodora = test: as above
Method: as §1

Polygonum convolvulus = test: as above
Method: as §1

Stellaria media = test: as above
Method: as §1

Papaver rhoeas = test: as above
Method: as §1

Lamium purpureum = test: as above
Method: as §1

Galium aparine = test: as above
Method: as §1

Myosotis arvensis = test: as above
Method: as §1

Setaria viridis = test: as above
Method: as §1

Viola arvensis = test: as above
Method: as §1

Alopecurus myosuroides [1] = test: as above
Method: as §1

Lolium perenne = test: as above
Method: as §1

Poa annua = test: as above
Method: as §1

Alopecurus myosuroides [2] = test: greenhouse herbicidal trial, pre-emergence application, assessment 21 days after treatment
Method: as §1

[3] = Galium aparine (1.whorl), 15 g a.i./ha
[4] = Galium aparine (1.whorl), 30 g a.i./ha
[5] = Galium aparine (2.whorl), 15 g a.i./ha
[6] = Galium aparine (1.whorl), 60 g a.i./ha
[7] = Galium aparine (1.whorl), 120 g a.i./ha
[8] = Galium aparine (2.whorl), 60 g a.i./ha
[9] = Galium aparine (2.whorl), 120 g a.i./ha

Nc1c(Cl)c(F)nc(OCC(=O)O)c1Cl [Fluroxypyr, reference compound]
% Control (Veronica persica; 120 g a.i./ha): 52% | % Control (Polygonum lapathifolium; 120 g a.i./ha): 80% | % Control (Matricaria inodora; 90 g a.i./ha): 45% | % Control (Polygonum convolvulus; 90 g a.i./ha): 45% | % Control (Stellaria media; 120 g a.i./ha): 67% | % Control (Papaver rhoeas; 90 g a.i./ha): 0%

Cc1cc(Oc2cc(C(F)(F)F)nn2C)nc(Oc2cc(C(F)(F)F)nn2C)c1 [Compound B]
% Control (Veronica persica; 7.5 g a.i./ha): 65% | % Control (Veronica persica; 15 g a.i./ha): 77% | % Control (Polygonum lapathifolium; 15 g a.i./ha): 17% | % Control (Matricaria inodora; 15 9 a.i./ha): 7% | % Control (Matricaria inodora; 15 g a.i./ha): 20% | % Control (Matricaria inodora; 30 g a.i./ha): 22% | % Control (Polygonum convolvulus; 15 g a.i./ha): 7% | % Control (Polygonum convolvulus; 30 g a.i./ha): 15% and 7% | % Control (Lamium purpureum; 7.5 g a.i./ha): 70% | % Control (Stellaria media; 7.5 g a.i./ha): 25% | % Control (Stellaria media; 15 g a.i./ha): 47% and 45% and 27% | % Control (Stellaria media; 30 g a.i./ha): 62% and 42% | % Control (Galium aparine; Galium aparine (1.whorl), 15 9 a.i./ha): 80% | % Control (Galium aparine; [3]): 67% and 40% | % Control (Galium aparine; [4]): 83% and 52% | % Control (Galium aparine; Galium aparine (2.whorl), 15 9 a.i./ha): 60% | % Control (Galium aparine; [5]): 45% and 37% | % Control (Galium aparine; Galium aparine (2.whorl), 30 g a.i./ha): 67% and 65% and 45% | % Control (Galium aparine; Galium aparine (3.whorl), 15 g a.i./ha): 40% | % Control (Galium aparine; Galium aparine (3.whorl), 30 g a.i./ha): 40% | % Control (Papaver rhoeas; 7.5 g a.i./ha): 7%

COc1cc(OC)nc(NC(=O)NS(=O)(=O)N(C)S(C)(=O)=O)n1 [Amidosulfuron, reference compound]
% Control (Veronica persica; 30 g a.i./ha): 0% | % Control (Lamium purpureum; 30 g a.i./ha): 0% | % Control (Stellaria media; 30 g a.i./ha): 50% | % Control (Galium aparine; [3]): 40% | % Control (Galium aparine; [5]): 20% | % Control (Papaver rhoeas; 30 g a.i./ha): 15%

CCCCCCCC(=O)Oc1c(Br)cc(C#N)cc1Br [Bromoxynil, Bromoxynil Octanoate, reference compound]
% Control (Lamium purpureum; 60 g a.i./ha): 17% | % Control (Stellaria media; 60 g a.i./ha): 0% | % Control (Galium aparine; [6]): 70% | % Control (Galium aparine; [7]): 75% | % Control (Galium aparine; [8]): 57% | % Control (Galium aparine; [9]): 77% | % Control (Papaver rhoeas; 60 g a.i./ha): 79%

N#Cc1cc(I)c(O)c(I)c1 [loxynil, reference compound]
% Control (Matricaria inodora; 60 g a.i./ha): 89% | % Control (Myosotis arvensis; 60 g a.i./ha): 37% | % Control (Galium aparine; [6]): 40% | % Control (Galium aparine; [8]): 5% | % Control (Papaver rhoeas; 60 g a.i./ha): 0%

CC(Oc1ccc(Oc2nc3ccc(Cl)cc3o2)cc1)C(=O)O (centres unmarked) [Fenoxaprop, reference compound]
% Control (Setaria viridis; 15 g a.i./ha): 62% | % Control (Setaria viridis; 30 g a.i./ha): 72% | % Control (Setaria viridis; 60 g a.i./ha): 77%

Cn1nc(C(F)(F)F)cc1Oc1cccc(Oc2cc(C(F)(F)F)nn2C)n1 [Compound A]
% Control (Veronica persica; 30 g a.i./ha): 81% | % Control (Matricaria inodora; 15 g a.i./ha): 1% | % Control (Matricaria inodora; 30 g a.i./ha): 1% | % Control (Lamium purpureum; 30 g a.i./ha): 65% and 62% and 35% | % Control (Stellaria media; 30 g a.i./ha): 45% and 65% | % Control (Viola arvensis; 30 g a.i./ha): 75% | % Control (Myosotis arvensis; 15 g a.i./ha): 72% | % Control (Myosotis arvensis; 30 g a.i./ha): 57% | % Control (Galium aparine; [4]): 80% and 57% | % Control (Galium aparine; Galium aparine (1.whorl), 50 g a.i./ha): 50% | % Control (Galium aparine; [6]): 67% | % Control (Galium aparine; Galium aparine (2.whorl), 50 g a.i./ha): 30% | % Control (Galium aparine; [8]): 42% | % Control (Papaver rhoeas; 15 g a.i./ha): 79% | % Control (Papaver rhoeas; 60 g a.i./ha): 10%

Cc1cc(OCc2ccc(F)cc2)nc(Oc2cc(C(F)(F)F)nn2C)c1 [Compound C]
% Control (Setaria viridis; 12.5 g a.i./ha): 30% | % control (Setaria viridis; 12.5 g a.i./ha): 30% | % control (Setaria viridis; 25 g a.i./ha): 55% | % control (Setaria viridis; 50 g a.i./ha): 75% | % control (Alopecurus myosuroides [1]; 12.5 g a.i./ha): 65% | % control (Alopecurus myosuroides [1]; 25 g a.i./ha): 83% | % control (Alopecurus myosuroides [1]; 50 g a.i./ha): 88% | % control (Lolium perenne; 12.5 g a.i./ha): 38% | % control (Lolium perenne; 25 g a.i./ha): 65% | % control (Lolium perenne; 50 g a.i./ha): 78% | % control (Poa annua; 12.5 g a.i./ha): 75%

CCNc1nc(Cl)nc(NC(C)(C)C#N)n1 [Cyanazine, reference compound]
% Control (Matricaria inodora; 120 g a.i./ha): 52% | % Control (Matricaria inodora; 240 g a.i./ha): 85% | % Control (Polygonum convolvulus; 120 g a.i./ha): 60% | % Control (Stellaria media; 120 g a.i./ha): 61% | % Control (Stellaria media; 240 g a.i./ha): 72% | % Control (Galium aparine; [7]): 5% | % Control (Galium aparine; Galium aparine (1.whorl), 240 g a.i./ha): 10% | % Control (Galium aparine; [9]): 0% | % Control (Galium aparine; Galium aparine (2.whorl), 240 g a.i./ha): 10% | % Control (Galium aparine; Galium aparine (3.whorl), 120 g a.i./ha): 0% | % Control (Galium aparine; Galium aparine (3.whorl), 240 g a.i./ha): 5% | % Control (Papaver rhoeas; 120 g a.i./ha): 0% | % Control (Papaver rhoeas; 240 g a.i./ha): 0%

CCC(CC)Nc1c([N+](=O)[O-])cc(C)c(C)c1[N+](=O)[O-] [Pendimethalin]
% Control (Alopecurus myosuroides [2]; 450 g a.i./ha): 35% | % Control (Alopecurus myosuroides [2]; 900 g a.i./ha): 55%

Cc1cc(OCc2ccccc2)nc(Oc2cc(C(F)(F)F)nn2C)c1 [Compound D]
% Control (Alopecurus myosuroides [2]; 15 g a.i./ha): 60% and 57%

CC(C)c1ccc(NC(=O)N(C)C)cc1 [Isoproturon, reference compound]
% Control (Alopecurus myosuroides [2]; 120 g a.i./ha): 75% | % Control (Veronica persica; 1920 g a.i./ha): 0% | % control (Setaria viridis; 150 g a.i./ha): 58% | % control (Alopecurus myosuroides [1]; 150 g a.i./ha): 30% | % control (Alopecurus myosuroides [1]; 300 g a.i./ha): 73% | % Control (Polygonum convolvulus; 1920 g a.i./ha): 4% | % Control (Lamium purpureum; 1920 g a.i./ha): 3% | % Control (Viola arvensis; 1920 g a.i./ha): 65% | % control (Lolium perenne; 150 g a.i./ha): 10% | % control (Lolium perenne; 300 g a.i./ha): 40% | % control (Poa annua; 150 g a.i./ha): 65% | % control (Poa annua; 300 g a.i./ha): 83% | % Control (Myosotis arvensis; 1920 g a.i./ha): 25% | % Control (Galium aparine; Galium aparine (2.whorl), 1920 g a.i./ha): 0%

Cc1cc(Cl)ccc1O[C@H](C)C(=O)O [CMPP-P, (R)-2-(4-chloro-2-methylphenoxy) proprionic acid]
% Control (Polygonum convolvulus; 480 g a.i./ha): 40% | % Control (Lamium purpureum; 480 g a.i./ha): 67% | % Control (Papaver rhoeas; 480 g a.i./ha): 47%
